Laboratory results reported in ChEMBL document CHEMBL1125711, “Flavins as potential antimalarials. 2. 3-Methyl-10-(substituted-phenyl) flavins” (J Med Chem, 1991).

Experiments:
Assay type in all cases: functional
[1] = test system: Plasmodium vinckei vinckei; experiment: Antimalarial activity against Plasmodium vinckei V52 after 20 mg/kg intraperitoneal dose
Mus musculus [2] = experiment: Increase in mean survival days was determined in mice after ip administration of 30 mg/kg; toxic; details: route intraperitoneal
[3] = test system: Plasmodium vinckei vinckei; experiment: Antimalarial activity against Plasmodium vinckei V52 on 10 mg/kg intraperitoneal dose
[4] = test system: Plasmodium vinckei vinckei; experiment: Antimalarial activity against Plasmodium vinckei V52 on 30 mg/kg intraperitoneal dose
Mus musculus [5] = experiment: Increase in mean survival days was determined in mice after ip administration of 10 mg/kg; details: route intraperitoneal
Mus musculus [6] = experiment: Increase in mean survival days was determined in mice after ip administration of 20 mg/kg; details: route intraperitoneal
Mus musculus [7] = experiment: Antimalarial activity was evaluated against Plasmodium vinckei V52 after intraperitoneal administration at dose 70 mg/kg
Mus musculus [8] = experiment: Antimalarial activity was evaluated against Plasmodium vinckei V52 after intraperitoneal administration at dose 15 mg/kg
[9] = test system: Plasmodium vinckei vinckei; experiment: Increase in mean survival days of Plasmodium inoculated mice (Mus musculus) after 70 mg/Kg intraperitoneal dose
Mus musculus [10] = organism: Mus musculus; experiment: Effective dose required to obtain a parasitaemia of 40% 48 hours after treatment in mice
Mus musculus [11] = experiment: Antimalarial activity was evaluated against Plasmodium vinckei vinckei V52 after intraperitoneal administration at dose 40 mg/kg
Mus musculus [12] = experiment: Antimalarial activity was evaluated against Plasmodium vinckei vinckei V52 after intraperitoneal administration at dose 25 mg/kg
Mus musculus [13] = experiment: Antimalarial activity was evaluated against Plasmodium vinckei V52 after intraperitoneal administration at dose 50 mg/kg
Mus musculus [14] = experiment: Increase in mean survival days was determined in mice after ip administration of 15 mg/kg; details: route intraperitoneal
[15] = test system: Plasmodium vinckei vinckei; experiment: Antimalarial activity against Plasmodium vinckei V52 on 70 mg/kg intraperitoneal dose
Mus musculus [16] = experiment: Increase in mean survival days was determined in mice after ip administration of 25 mg/kg; details: route intraperitoneal
Mus musculus [17] = experiment: Increase in mean survival days was determined in mice after ip administration of 30 mg/kg; details: route intraperitoneal
Mus musculus [18] = experiment: Increase in mean survival days was determined in mice after ip administration of 50 mg/kg; details: route intraperitoneal
Mus musculus [19] = experiment: Antimalarial activity was evaluated against Plasmodium vinckei V52 after intraperitoneal administration at dose 25 mg/kg
Mus musculus [20] = experiment: Increase in mean survival days was determined in mice after ip administration of 70 mg/kg; toxic; details: route intraperitoneal
Mus musculus [21] = experiment: Increase in mean survival days was determined in mice after ip administration of 25 mg/kg; toxic; details: route intraperitoneal
Mus musculus [22] = experiment: Antimalarial activity was evaluated against Plasmodium vinckei V52 after intraperitoneal administration at dose 60 mg/kg
Mus musculus [23] = experiment: Increase in mean survival days was determined in mice after ip administration of 60 mg/kg; details: route intraperitoneal
Mus musculus [24] = experiment: Antimalarial activity was evaluated against Plasmodium vinckei vinckei V52 after intraperitoneal administration at dose 50 mg/kg
Mus musculus [25] = experiment: Increase in mean survival days was determined in mice after ip administration of 40 mg/kg; details: route intraperitoneal
Mus musculus [26] = experiment: Antimalarial activity was evaluated against Plasmodium vinckei V52 after intraperitoneal administration at dose 30 mg/kg
Mus musculus [27] = experiment: Antimalarial activity was evaluated against Plasmodium vinckei V52 after intraperitoneal administration at dose 10 mg/kg

SMILES | Cured [1] [%] | Cured [3] [%] | Cured [4] [%] | Mean survival days (Mus musculus [5]) [days] | Mean survival days (Mus musculus [6]) [days] | Mean survival days [9] [days] | Cured [15] [%] | Mean survival days (Mus musculus [17]) [days] | also measured
Cn1c(=O)nc2n(-c3ccc(Cl)cc3F)c3ccccc3nc-2c1=O | 0 | 0 | 0 | 1 | 4 | – | – | – | Mean survival days (Mus musculus [2]): -2 days
Cn1c(=O)nc2n(-c3cc(Cl)cc(Cl)c3)c3ccccc3nc-2c1=O | 100 | 100 | 100 | – | – | 16.5 | – | – | Cured (Mus musculus [7]): 60%; Cured (Mus musculus [8]): 100%; ED40 (Mus musculus [10]): 40.2 µmol/kg; Cured (Mus musculus [11]): 100%; Cured (Mus musculus [12]): 100%
Cc1cccc(-n2c3nc(=O)n(C)c(=O)c-3nc3ccccc32)c1 | 0 | 0 | 0 | 0.8 | 0.5 | 0.3 | 0 | 0 | Cured (Mus musculus [13]): 0%; Mean survival days (Mus musculus [14]): 0 days; Cured (Mus musculus [8]): 0%; Mean survival days (Mus musculus [16]): 0 days; Mean survival days (Mus musculus [18]): 0.5 days; Cured (Mus musculus [19]): 0%
Cc1ccc(-n2c3nc(=O)n(C)c(=O)c-3nc3ccccc32)cc1 | – | 0 | 0 | 0 | – | 0 | – | 0.2 | Cured (Mus musculus [7]): 0%; Cured (Mus musculus [13]): 0%; Mean survival days (Mus musculus [18]): 0.3 days
COc1cccc(-n2c3nc(=O)n(C)c(=O)c-3nc3ccccc32)c1 | 0 | 0 | 0 | 0 | 0 | 0 | 0 | 0 | –
Cn1c(=O)nc2n(-c3ccc(Cl)c(C(F)(F)F)c3)c3ccccc3nc-2c1=O | 0 | 0 | 0 | 0 | 0 | 0.2 | 0 | 0 | Mean survival days (Mus musculus [14]): 0 days; Cured (Mus musculus [8]): 0%
Cn1c(=O)nc2n(-c3ccc(F)c(F)c3)c3ccccc3nc-2c1=O | 0 | 0 | 0 | 0 | -0.5 | – | 0 | 0 | Mean survival days (Mus musculus [20]): -1 days
Cn1c(=O)nc2n(-c3cc(C(F)(F)F)ccc3Cl)c3ccccc3nc-2c1=O | 0 | 0 | 0 | 0 | 0 | – | – | – | Mean survival days (Mus musculus [2]): -0.4 days; Mean survival days (Mus musculus [14]): 0.2 days; Cured (Mus musculus [8]): 0%; Mean survival days (Mus musculus [21]): 0 days; Cured (Mus musculus [19]): 0%
Cn1c(=O)nc2n(-c3cccc(Cl)c3)c3ccccc3nc-2c1=O | – | 0 | 0 | 0 | – | – | 100 | 0 | Cured (Mus musculus [22]): 50%; Cured (Mus musculus [13]): 0%; Mean survival days (Mus musculus [23]): 0.5 days; Mean survival days (Mus musculus [18]): 0.4 days
CSc1cccc(-n2c3nc(=O)n(C)c(=O)c-3nc3ccccc32)c1 | 0 | 0 | 0 | 0.2 | 0 | 0 | 0 | 0 | –
CCc1ccc(-n2c3nc(=O)n(C)c(=O)c-3nc3ccccc32)cc1 | 0 | 0 | 0 | 0.2 | 0.3 | -0.4 | 0 | 0 | ED40 (Mus musculus [10]): 281 µmol/kg
CSc1ccc(-n2c3nc(=O)n(C)c(=O)c-3nc3ccccc32)cc1 | 0 | 0 | 0 | 0.2 | 0.5 | 0 | 0 | 0.5 | –
CCCCc1ccc(-n2c3nc(=O)n(C)c(=O)c-3nc3ccccc32)cc1 | 0 | 0 | 0 | 0 | 0 | 0.5 | – | 0 | Cured (Mus musculus [7]): 0%; Mean survival days (Mus musculus [14]): 0 days; Cured (Mus musculus [8]): 0%; Mean survival days (Mus musculus [16]): 0.1 days; Mean survival days (Mus musculus [18]): 0 days; Cured (Mus musculus [24]): 0%; Cured (Mus musculus [12]): 0%
Cn1c(=O)nc2n(-c3ccc(Cl)c(Cl)c3)c3ccccc3nc-2c1=O | 0 | 0 | – | 0 | – | 0 | – | 0 | Cured (Mus musculus [7]): 0%; Mean survival days (Mus musculus [18]): 0 days; Cured (Mus musculus [24]): 0%
Cn1c(=O)nc2n(-c3ccc(C(=O)O)cc3)c3ccccc3nc-2c1=O | – | 0 | 0 | 0 | – | -0.2 | 0 | 0.2 | –
CN(C)c1ccc(-n2c3nc(=O)n(C)c(=O)c-3nc3ccccc32)cc1 | 0 | 0 | – | 0 | – | 0 | 0 | 0 | –
Cn1c(=O)nc2n(-c3ccccc3Cl)c3ccccc3nc-2c1=O | – | 0 | 0 | 0 | – | – | 0 | – | Mean survival days (Mus musculus [2]): -0.3 days; Mean survival days (Mus musculus [20]): -2 days
Cc1ccc(-n2c3nc(=O)n(C)c(=O)c-3nc3ccccc32)cc1Cl | 0 | 0 | – | 0 | – | 0 | 0 | 0 | ED40 (Mus musculus [10]): 456 µmol/kg
Cn1c(=O)nc2n(-c3ccc(C(F)(F)F)cc3)c3ccccc3nc-2c1=O | 0 | 0 | 80 | 0 | 0 | – | 100 | 2 | Cured (Mus musculus [22]): 100%; Cured (Mus musculus [13]): 100%; ED40 (Mus musculus [10]): 135 µmol/kg
Cn1c(=O)nc2n(-c3ccc(Cl)cc3Cl)c3ccccc3nc-2c1=O | – | 0 | 0 | 1.7 | – | – | – | – | Mean survival days (Mus musculus [2]): -1 days; Mean survival days (Mus musculus [14]): 0.5 days; Cured (Mus musculus [8]): 0%; Mean survival days (Mus musculus [21]): -1.2 days; Cured (Mus musculus [12]): 0%
Cn1c(=O)nc2n(-c3cccc(F)c3)c3ccccc3nc-2c1=O | 0 | 0 | 0 | 0.2 | 0 | – | 0 | 0.2 | Cured (Mus musculus [13]): 20%; Mean survival days (Mus musculus [14]): 0.2 days; Cured (Mus musculus [8]): 0%; Mean survival days (Mus musculus [16]): 0 days; Mean survival days (Mus musculus [20]): -1 days; Mean survival days (Mus musculus [18]): 0 days; Cured (Mus musculus [11]): 0%; Cured (Mus musculus [19]): 0%; Mean survival days (Mus musculus [25]): 0.8 days
Cc1cc(Cl)ccc1-n1c2nc(=O)n(C)c(=O)c-2nc2ccccc21 | 0 | 0 | 0 | 0 | 1.2 | – | – | – | Mean survival days (Mus musculus [2]): -2 days; Mean survival days (Mus musculus [21]): -1.5 days; Cured (Mus musculus [12]): 0%
Cn1c(=O)nc2n(-c3ccc(C#N)cc3)c3ccccc3nc-2c1=O | – | – | – | 0 | – | 0 | – | 0 | Cured (Mus musculus [7]): 0%; Cured (Mus musculus [26]): 0%; Cured (Mus musculus [27]): 0%
CCc1cccc(-n2c3nc(=O)n(C)c(=O)c-3nc3ccccc32)c1 | 0 | 0 | 0 | – | 0 | 0.3 | – | 0 | Cured (Mus musculus [7]): 0%; Mean survival days (Mus musculus [14]): 0 days; Mean survival days (Mus musculus [16]): 0 days; Cured (Mus musculus [12]): 0%
Cn1c(=O)nc2n(-c3ccc(O)cc3)c3ccccc3nc-2c1=O | 0 | 0 | – | 0 | – | 0 | 0 | 0.2 | –
